From patent US20230150953A1, “SUBSTITUTED ISOPHTHALIC ACID DIAMIDES” (Bayer Aktiengesellschaft, priority 2020, published 2023)

Tests used:
Format in all cases: in vivo
LOLRI Lolium rigidum = assay: Pre-emergence herbicidal action against harmful plants; details: scored visually after 3 weeks vs untreated controls
Text: (§1) The abbreviations used for the harmful plants mean: • ABUTH Abutilon theophrasti ALOMY Alopecurus myosuroides • AVEFA Avena fatua AMARE Amaranthus retroflexus • CYPES Cyperus esculentus DIGSA Digitaria sanguinalis • ECHCG Echinochloa crus-galli HORMU Hordeum murinum • LOLMU Lolium multiflorum LOLRI Lolium rigidum • MATIN Matricaria inodora PHBPU Pharbitis purpurea • POLCO Polygonum convolvulus SETVI Setaria viridis • STEME Stellaria media VERPE Veronica persica • VIOTR Viola tricolor 1. Pre-Emergence Herbicidal Action Against Harmful Plants Seeds of monocotyledonous and dicotyledonous weed plants and crop plants are laid out in sandy loam soil in wood-fiber pots and covered with soil. The compounds of the invention, formulated in the form of wettable powders (WP) or as emulsion concentrates (EC), are then applied to the surface of the covering soil in the form of an aqueous suspension or emulsion at a water application rate equivalent to 600 to 800 l/ha, with addition of 0.2% wetting agent. After the treatment, the pots are placed in a greenhouse and kept under good growth conditions for the trial plants. The damage to the test plants is scored visually after a test period of 3 weeks by comparison with untreated controls (herbicidal activity in percent (%): 100% activity=the plants have died, 0% activity=like control plants). […] The tables below illustrate, in an illustrative manner, the post-emergence herbicidal action of the compounds of the invention, the herbicidal activity being stated in percent.

[1] = test system: DIGSA Digitaria sanguinalis; assay: as above; details: scored visually after 3 weeks vs untreated controls
Text: as §1

PHBPU Pharbitis purpurea [2] = assay: as above; details: scored visually after 3 weeks vs untreated controls
Text: as §1

[3] = test system: AMARE Amaranthus retroflexus; assay: as above; details: scored visually after 3 weeks vs untreated controls
Text: as §1

MATIN Matricaria inodora = assay: as above; details: scored visually after 3 weeks vs untreated controls
Text: as §1

[4] = test system: ABUTH Abutilon theophrasti; assay: as above; details: scored visually after 3 weeks vs untreated controls
Text: as §1

[5] = test system: POLCO Polygonum convolvulus; assay: as above; details: scored visually after 3 weeks vs untreated controls
Text: as §1

PHBPU Pharbitis purpurea [6] = assay: Post-emergence herbicidal action against harmful plants; details: one-leaf stage, assessed visually after about 3 weeks vs untreated controls
Text: (§2) The abbreviations used for the harmful plants mean: • ABUTH Abutilon theophrasti ALOMY Alopecurus myosuroides • AVEFA Avena fatua AMARE Amaranthus retroflexus • CYPES Cyperus esculentus DIGSA Digitaria sanguinalis • ECHCG Echinochloa crus-galli HORMU Hordeum murinum • LOLMU Lolium multiflorum LOLRI Lolium rigidum • MATIN Matricaria inodora PHBPU Pharbitis purpurea • POLCO Polygonum convolvulus SETVI Setaria viridis • STEME Stellaria media VERPE Veronica persica • VIOTR Viola tricolor 2. Post-Emergence Herbicidal Action Against Harmful Plants Seeds of monocotyledonous and dicotyledonous weed and crop plants are laid out in sandy loam soil in wood-fiber pots, covered with soil and cultivated in a greenhouse under good growth conditions. 2 to 3 weeks after sowing, the test plants are treated at the one-leaf stage. The compounds of the invention, formulated in the form of wettable powders (WP) or as emulsion concentrates (EC), are then sprayed onto the green parts of the plants in the form of an aqueous suspension or emulsion at a water application rate equivalent to 600 to 800 l/ha, with addition of 0.2% wetting agent. After the test plants have been left to stand in the greenhouse under optimal growth conditions for about 3 weeks, the action of the preparations is assessed visually in comparison to untreated controls (herbicidal action in percent (%): 100% activity=the plants have died, 0% activity=like control plants). […] The tables below illustrate, in an illustrative manner, the post-emergence herbicidal action of the compounds of the invention, the herbicidal activity being stated in percent.

[7] = test system: AMARE Amaranthus retroflexus; assay: as above; details: one-leaf stage, assessed visually after about 3 weeks vs untreated controls
Text: as §2

[8] = test system: ECHCG Echinochloa crus-galli; assay: as above; details: 20 g/ha, one-leaf stage, assessed visually after about 3 weeks vs untreated controls
Text: as §2

SETVI Setaria viridis = assay: Pre-emergence herbicidal action against harmful plants; details: scored visually after 3 weeks vs untreated controls
Text: as §1

[9] = test system: ECHCG Echinochloa crus-galli; assay: as above; details: scored visually after 3 weeks vs untreated controls
Text: as §1

[10] = test system: ALOMY Alopecurus myosuroides; assay: as above; details: 80 g/ha, scored visually after 3 weeks vs untreated controls
Text: as §1

[11] = test system: DIGSA Digitaria sanguinalis; assay: Post-emergence herbicidal action against harmful plants; details: one-leaf stage, assessed visually after about 3 weeks vs untreated controls
Text: as §2

Row | Compound | Pre-emergence action at 80 g/ha against LOLRI in % (LOLRI Lolium rigidum) | Pre-emergence action at 20 g/ha against DIGSA in % [1] | Pre-emergence action at 80 g/ha against DIGSA in % [1] | Pre-emergence action at 80 g/ha against PHBPU in % (PHBPU Pharbitis purpurea [2]) | Pre-emergence action at 20 g/ha against AMARE in % [3] | Pre-emergence action at 80 g/ha against AMARE in % [3] | Pre-emergence action at 20 g/ha against MATIN in % (MATIN Matricaria inodora) | Pre-emergence action at 80 g/ha against MATIN in % (MATIN Matricaria inodora) | Pre-emergence action at 80 g/ha against ABUTH in % [4] | Pre-emergence action at 20 g/ha against POLCO in % [5] | Pre-emergence action at 80 g/ha against POLCO in % [5] | Post-emergence action at 20 g/ha against PHBPU in % (PHBPU Pharbitis purpurea [6]) | Post-emergence action at 5 g/ha against AMARE in % [7] | Post-emergence action at 20 g/ha against AMARE in % [7] | Post-emergence action at 20 g/ha against ECHCG in % [8] | Pre-emergence action at 80 g/ha against SETVI in % (SETVI Setaria viridis) | Pre-emergence action at 80 g/ha against ECHCG in % [9] | Pre-emergence action at 80 g/ha against ALOMY in % [10] | further results
1 | CCn1nnnc1NC(=O)c1c(F)cc(C(F)(F)F)c(C(=O)NC)c1C [Example 2-92] | 90% | 80% | 100% | 80% | 100% | 100% | 90% | 90% | 80% | 80% | 90% | 80% | 90% | 90% | 80% | – | – | – | –
2 | CCNC(=O)c1c(C(F)(F)F)cc(OC)c(C(=O)Nc2nnnn2C)c1Cl [Example 1-388] | – | – | – | – | – | – | – | – | – | – | – | – | – | 80% | – | – | – | – | –
3 | CCNC(=O)c1c(C(F)(F)F)cc(F)c(C(=O)Nc2nnnn2C)c1C [Example 1-93] | 80% | 80% | 100% | 90% | 100% | 100% | – | 90% | 100% | – | 80% | 90% | 90% | 90% | – | 80% | 90% | 80% | Pre-emergence action at 20 g/ha against ABUTH in % [4]: 100%; Post-emergence action at 5 g/ha against PHBPU in % (PHBPU Pharbitis purpurea [6]; 5 g/ha): 80%
4 | CCn1nnnc1NC(=O)c1c(F)cc(C(F)(F)F)c(C(=O)NCC#N)c1C [Example 2-386] | – | – | – | – | – | 100% | – | 80% | – | – | 80% | – | – | – | – | – | – | – | –
5 | Cc1c(C(=O)Nc2nnnn2C)c(F)cc(C(F)(F)F)c1C(=O)N(C)C [Example 1-95] | – | 80% | 90% | – | 90% | 100% | – | 90% | – | – | 80% | – | – | 90% | – | 100% | – | 90% | Pre-emergence action at 20 g/ha against SETVI in % (SETVI Setaria viridis; 20 g/ha): 100%
6 | CCn1nnnc1NC(=O)c1c(F)cc(C(F)(F)F)c(C(=O)NCC2CC2)c1C [Example 2-384] | – | 80% | 100% | 80% | 100% | 100% | – | 100% | 100% | 90% | 100% | – | 90% | 90% | 80% | 80% | 80% | 80% | Pre-emergence action at 20 g/ha against ABUTH in % [4]: 90%
7 | CCn1nnnc1NC(=O)c1c(F)cc(C(F)(F)F)c(C(=O)N(C)C)c1C [Example 2-95, N′-(1-ethyl-1H-tetrazol-5-yl)-4-fluoro-N,N,2-trimethyl-6-(trifluoromethyl)isophthalamide] | 80% | 90% | 100% | – | – | 100% | – | 90% | 100% | 80% | 100% | 80% | – | – | – | 90% | 80% | 90% | –
8 | Cc1c(C(=O)Nc2nnnn2C)c(F)cc(C(F)(F)F)c1C(=O)NCC(F)F [Example 1-385, N^1-(2,2-difluoroethyl)-4-fluoro-2-methyl-N^3-(1-methyl-1H-tetrazol-5-yl)-6-(trifluoromethyl)isophthalamide] | – | 80% | 100% | 80% | 90% | 100% | – | 90% | 80% | – | – | – | 90% | 90% | – | 90% | – | 90% | –
9 | CCNC(=O)c1c(C(F)(F)F)cc(F)c(C(=O)Nc2nnnn2CC)c1C [Example 2-93, N^1-ethyl-N^3-(1-ethyl-1H-tetrazol-5-yl)-4-fluoro-2-methyl-6-(trifluoromethyl)isophthalamide] | – | – | 100% | 90% | 100% | 100% | 80% | 90% | 100% | – | – | 90% | 80% | 90% | – | 80% | 80% | 90% | Pre-emergence action at 20 g/ha against PHBPU in % (PHBPU Pharbitis purpurea [2]; 20 g/ha): 80%
10 | CCN(C)C(=O)c1c(C(F)(F)F)cc(F)c(C(=O)Nc2nnnn2C)c1C [Example 1-96] | – | – | 100% | – | – | 100% | 80% | 100% | 100% | – | – | – | 80% | 90% | 80% | 100% | 80% | 80% | Post-emergence action at 20 g/ha against DIGSA in % [11]: 90%
